Test results published in the supplement of paper PMC7021759.

Test system: SK-N-MM (SKNMM-MYCN, doxycycline-inducible MYCN)
Assay: area under dose-response curve (CellTiter-Glo viability normalised to plate controls) (AUC (arbitrary units)); higher = more loss of viability; extreme values may be limits of the assay
In short: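 SK-N-MM cells carrying doxycycline-inducible MYCN were seeded in 96-well plates at 1250 cells/100 μL, and about 24 h later they received medium with or without doxycycline. Two days after that, 10-point 1:3 dilution series of compounds were added by pin transfer (890-fold dilution of stock), with a second dose on day 4. CellTiter-Glo luminescence was measured 3 or 8 days after drugging. Log2 signals were scaled against the positive and negative controls on each plate and used to calculate the area under the dose-response curve.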

[1] = MYCN induction (doxycycline): +doxycycline (MYCN induced), time after drugging: 3 days
[2] = MYCN induction (doxycycline): +doxycycline (MYCN induced), time after drugging: 8 days
[3] = MYCN induction (doxycycline): no doxycycline (MYCN not induced), time after drugging: 3 days
[4] = MYCN induction (doxycycline): no doxycycline (MYCN not induced), time after drugging: 8 days

| Structure (SMILES) | area under dose-response curve [1] | area under dose-response curve [2] | area under dose-response curve [3] | area under dose-response curve [4] |
| --- | --- | --- | --- | --- |
| Cc1cc(C2CCCCC2)n(O)c(=O)c1 [CICLOPIROX] | 0 | 97.9 | 15.5 | 41.6 |
| O=C(c1ccc(F)c(F)c1Nc1ccc(I)cc1F)N1CC(O)([C@@H]2CCCCN2)C1 [COBIMETINIB] | – | 145 | 51.1 | 104 |
| N#CN=C(NCCCCCCOc1ccc(Cl)cc1)Nc1ccncc1 [GMX-1778] | 172 | 348 | 119 | 338 |
| O=C(NC[C@H](O)CO)c1ccncc1Nc1ccc(I)cc1F [PIMASERTIB] | 42.1 | 125 | 0 | 105 |
| CC1=C(/C=C/C(C)=C/C=C/C(C)=C/C(=O)O)C(C)(C)CCC1 [TRETINON] | – | 0.434 | 1.4 | 0 |
| CC(C)(C)c1nc(-c2cccc(NS(=O)(=O)c3c(F)cccc3F)c2F)c(-c2ccnc(N)n2)s1 [DABRAFENIB] | 9.29 | 0 | 14.1 | 10.8 |
| CN1CCC(CNc2ccc3ncc(-c4cccc(OC(F)(F)F)c4)n3n2)CC1 [SGI-1776] | – | 144 | – | 138 |
| CC1CS(=O)(=O)CCN1/N=C/c1ccc([N+](=O)[O-])o1 (stereo not drawn) [NIFURTIMOX] | 3.58 | 0 | 0 | 0.144 |
| CCCS(=O)(=O)Nc1ccc(F)c(C(=O)c2c[nH]c3ncc(-c4ccc(Cl)cc4)cc23)c1F [VEMURAFENIB] | 18.3 | 24.6 | 15.8 | 0 |
| CC(C)c1cc(-c2n[nH]c(=O)n2-c2ccc3c(ccn3C)c2)c(O)cc1O [GANETESPIB] | 169 | 378 | 202 | 398 |
| COc1cc2c(cc1-c1c(C)noc1C)ncc1[nH]c(=O)n([C@H](C)c3ccccn3)c12 [I-BET151] | 10.5 | 46.3 | 14.6 | 36.3 |
| CC1(C)CCC(C)(C)c2cc(NC(=O)c3ccc(C(=O)O)cc3)ccc21 [TAMIBAROTENE] | 1.1 | 3.09 | 0 | 0 |
| CC(=O)O[C@@H](C)/C=C\C(=O)N[C@@H]1C[C@H](C)[C@H](C/C=C(C)/C=C/[C@H]2O[C@](C)(O)C[C@@]3(CO3)[C@@H]2O)O[C@@H]1C | 13.5 | 33.2 | – | 28.1 |
| CC(C)C[C@H](NC(=O)[C@H](CCc1ccccc1)NC(=O)CN1CCOCC1)C(=O)N[C@@H](Cc1ccccc1)C(=O)N[C@@H](CC(C)C)C(=O)[C@@]1(C)CO1 [CARFILZOMIB] | 295 | 404 | 286 | 398 |
| C1=N/C2=N/c3ccc(OCCN4CCCC4)c(c3)COC/C=C/COCc3cccc(c3)C(=C1)N2 [PACRITINIB] | 170 | 176 | 165 | 198 |
| CN(C)CCCNC(=O)c1ccc(-c2cc(O)c3ncccc3c2)cc1 [ML324] | 16.5 | 109 | 4.85 | 68.6 |
| O=C(NOC[C@H](O)CO)c1ccc(F)c(F)c1Nc1ccc(I)cc1F | 28.9 | 92.1 | 21.5 | 84.4 |
